Data published in patent US20030130121A1, “Novel bacterial isolate and the preparation and use of its active metabolites” (priority 1999, published 2003).
In brackets after ≈: the same amount, converted by molar mass. Entries after “also recorded” stand apart in the source; their conditions may differ. Read-outs that look alike come from different tables or passages of the source.

Legend:
[1] = tested on: S. sclerotiorum sclerotia; assay: Suppression of apothecial formation - microtiter plate assay 2; type: cell-based, Sclerotinia sclerotiorum; settings: for MIC: Sclerotinia sclerotiorum; for inhibition of apothecial formation of sclerotia: S. sclerotiorum, qualitative
Description: Twenty four-well microtiter plates were used to test the effect of the purified metabolites on apothecial formation in a concentration range between 0.01 μg ml^−1 and 100 μg ml^−1. To obtain respective concentrations of tested metabolites, the appropriate volume out of the respective metabolite stock solutions of 100 μg ml^−1, 10 μg ml^−1 and 1 μg ml^−1, dissolved in acetonitrile, was distributed into the wells and the solvent was then evaporated. Thereupon, the metabolites were dissolved in sterile H2O and one, or in some tests two, preconditioned sclerotia were placed into each well. Tests were done in triplicate and controls were sclerotia placed in sterile water only.
(§1) The activity of haterumalide A, B and E, and of pyrrolnitrin to inhibit the spore germination of A. fumigatus, F. culmorum, F. oxysporum, H. annosum, M. canis, P. ultimum and S. sclerotiorum as well as the inhibition of the C. albicans growth was tested by using the microtiter plate assay 1 described in Example 7. The effect on apothecial formation of S. sclerotiorum sclerotia was assayed by using microtiter plate assay 2 described in Example 7.

[2] = tested on: S. sclerotiorum ascospores; assay: Suppression of spore germination - microtiter plate assay 1; type: cell-based, Sclerotinia sclerotiorum; settings: for MIC: Sclerotinia sclerotiorum, read-out: Minimal Inhibitory Concentration (MIC) to totally inhibit spore germination; for inhibition of ascospore germination: S. sclerotiorum, qualitative
Description: (§2) To obtain the A. fumigatus conidiospores, the fungus was grown on ME slants for about 2 weeks at 28° C. The F. culmorum and F. oxysporum conidia, the H. annosum basidiospores, the M. canis macroconidia were produced by inoculating fungal plugs on Corn Meal Agar plates (CMA, Difco Ltd.), Hagem Agar plates (5 g glucose, 5 g ME, 0.5 g NH4NO3, 0.5 g KH2PO4, 0.5 g MgSO4×7H2O, 20 g Agar in 1000 ml deionized H2O) and Oat Meal Agar plates (60 g oat meal, 12.5 g Agar in 1000 ml deionized H2O), respectively, for a period of 5 to 10 days at 25° C. Ascospores of S. sclerotiorum were collected during their dispersal from apothecia by entrapping them on the surface of a water agar (12 g Bacto Agar (Difco Ltd)), 1000 ml H2O). Mature spores were then scraped off or washed out from the surface of the agar plates, with 0,5% Bacto Peptone (Difco Ltd) supplemented with 0.01% Tween 80. The P. ultimum sporangia were obtained by. growing the fungus on grass blades (Martin, 1992). The C. albicans stock culture of 1.0×10^6 cfu ml^−1 was prepared from a 24-hours old culture grown on Yeast Malt Agar plates (YM Agar, Difco Ltd) at 37° C. by suspending it in 0.5% Bacto Peptone and adjusting the optical density of this culture to an absorbance of 0.5 at 600 nm. The spore concentration was counted by using a Bürker chamber, and stock spore suspensions were stored at −70 ° C. for further use. The spore concentrations in respective stock suspensions, as well as the spore concentrations and media to culture fungi in a microtiter plate assay, are listed in Table 2 below.
(§3) To follow the activity during purification, HPLC-fractions to be tested were directly collected to 96-well microtiter plates by using a fraction collector (FC 204, Gilson), and mainly the activity to inhibit the germination of F. culmorum conidia and S. sclerotiorum ascospores was tested. […] The solvents were always evaporated, and one hundred μl of spore suspension, suspended in the appropriate media as listed in Table 2, were then distributed into each well. Depending on the fungus tested, the spore germination was monitored after 24 to 96 hours of incubation at 25° C. in darkness except for A. fumigatus and C. albicans which were incubated at 28 ° C. and 37 ° C. Controls were spores suspended in respective culturing media and culturing media only. All tests were done in triplicate and repeated at least twice.
as §1

[3] = tested on: A. fumigatus conidiospores; assay: as above; type: cell-based; settings: Aspergillus fumigatus, read-out: Minimal Inhibitory Concentration (MIC) to totally inhibit spore germination
Description: as §2, §3, §1

[4] = tested on: P. ultimum sporangia; assay: as above; type: cell-based; settings: Globisporangium ultimum, read-out: Minimal Inhibitory Concentration (MIC) to totally inhibit spore germination
Description: as §2, §3, §1

[5] = tested on: H. annosum basidiospores; assay: as above; type: cell-based; settings: Heterobasidion annosum, read-out: Minimal Inhibitory Concentration (MIC) to totally inhibit spore germination
Description: as §2, §3, §1

[6] = tested on: F. culmorum conidia; assay: as above; type: cell-based; settings: Fusarium culmorum, read-out: Minimal Inhibitory Concentration (MIC) to totally inhibit spore germination
Description: as §2, §3, §1

[7] = tested on: F. oxysporum conidia; assay: as above; type: cell-based; settings: Fusarium oxysporum, read-out: Minimal Inhibitory Concentration (MIC) to totally inhibit spore germination
Description: as §2, §3, §1

[8] = tested on: M. canis macroconidia; assay: as above; type: cell-based, Microsporum canis var. canis; settings: Microsporum canis, read-out: Minimal Inhibitory Concentration (MIC) to totally inhibit spore germination
Description: as §2, §3
as §1, with “The effect on apothecial formation of S. sclerotiorum sclerotia was assayed by using microtiter plate assay 2 described in Example 7.” left out

[9] = tested on: S. sclerotiorum mycelium; assay: Suppression of S. sclerotiorum mycelial growth, susceptibility test discs on PDA; type: cell-based, Sclerotinia sclerotiorum; settings: for inhibition of mycelial growth: S. sclerotiorum, qualitative
Description: For testing effects of haterumalide A, halves of surface sterilized and bisected sclerotia were placed in the center PDA plates (9 cm in diameter) to initiate mycelial growth of S. sclerotiorum. The metabolite, at a concentration from 0.05 to 5 μg ml^−1 diluted in MeOH/H2O (1:1), was then spotted directly onto sterile antimicrobial susceptibility test discs (Oxoid Ltd) located at four equidistant places, giving a total of 0.2 to 20 μg ml^−1 compound per one Petri plate. The treatments were performed in triplicate. Zones of inhibition of mycelial growth were measured after 4 days and reduction of mycelial growth was calculated as a percentage of MeOH/H2O controls.

[10] = tested on: three classes of fungi other than Oomycetes; settings: Strobel et al. (1999); inhibition of mycelial growth; cited from earlier work
[11] = tested on: S. sclerotiorum sclerotia; assay: Viability of recovered sclerotia; type: cell-based, Sclerotinia sclerotiorum
Description: The sclerotia were placed in 100 ml of deionized water for 10 minutes and subsequently. washed with running deionized water for 10 minutes. They were then transferred onto moistened filter paper in sealed Petri dishes and placed under light conditions suitable for induction of apothecial formation. […] These sclerotia were surface disinfected in 70% ethanol for 2 minutes, rinsed in sterile deionized water, bisected, transferred to PDA in Petri dishes, and observed for mycelial growth after 5 days.
All the preparations were prepared in such a way that their relative concentrations corresponded to those of the bacterial culture, i.e. 1.5×10^9 cfu ml^−1 (non-diluted), 0.75×10^9 cfu ml^−1 (diluted 1:1) and 0.375×10^9 cfu ml^−1 (diluted 1:3), and their apothecial suppressive activity was compared to the effect of such bacterial cultures tested simultaneously. Three Petri plates per treatment were used with sclerotia treated with deionized water, 50, 25 and 12, 5% strength TSB and 1, 0.5 and 0.25% methanol (MeOH) in deionized water, as controls. Inclusion of methanol controls reflected residual concentrations of methanol in the ethyl acetate extratct and aqueous phase. The suppression of apothecial formation after the treatment with various culture preparations was transformed to values of apothecia formed per one sclerotium as a percentage of water control. Sclerotia with suppressed apothecial formation were retrieved and their viability was tested as described above (Example 8).

[12] = tested on: Stellaria media; assay: Foliar spraying of Stellaria media with A 153 culture preparations and haterumalide B; type: in vivo; settings: Stellaria media 6-8 leaf stage; 4 ml/4 plants/pot; no concentration factor printed
[13] = tested on: green algae (Scenedesmus quadricauda); assay: Growth of green algae in Z8 medium; type: cell-based; settings: concentrations similar to those used for the Lemna minor test; preliminary
Description: Additionally, the similar method was used to preliminary test the effect of haterumalide B on the growth of green algae (Scenedesmus quadricauda). Evaporated haterumalide B was dissolved in a sterile Z8 medium with the suspension of algae. Tests were performed in duplicate with suspensions of Scenedesmus quadricauda placed in only sterile Z8 medium as controls.

[14] = tested on: Lemna minor; assay: Differentiation and growth of Lemna minor, 24-well microtiter plates; type: in vivo; settings: for Number of Lemna minor fronts (leaves) per one microtiter plate well, End of test: 10 fronts at beginning, control 36
Description: Twenty four-well microtiter plates were used to test the effect of the purified haterumalide B on differentiation and growth of Lemna minor in a concentration range between 1 μg ml^−1 and 60 μg ml^−1. To obtain respective concentrations of the tested metabolite, the appropriate volume out of the respective metabolite stock solutions of 100 μg ml^−1 and 10 μg ml^−1, dissolved in acetonitrile, was distributed into the wells, and the solvent was then evaporated. Thereupon, the metabolite was dissolved in a sterile Lemna medium and three Lemna minor plants with 10 fronts were placed into each well. Tests were done in duplicate and controls were Lemna minor plants placed in only Lemna medium.

[15] = read-out: Minimal Inhibitory Concentration (MIC) to totally inhibit apothecial formation of sclerotia, S. sclerotiorum sclerotia

With `O=[N+]([O-])c1c(Cl)cccc1-c1c[nH]cc1Cl` [Pyrrolnitrin, pyrrolnitrin, reference compound] the MIC ([1]; S. sclerotiorum sclerotia, read-out: Minimal Inhibitory Concentration (MIC) to totally inhibit apothecial formation of sclerotia) was under 100 µg/mL, the MIC ([2]; S. sclerotiorum ascospores) was 10 µg/mL (≈ 38.9 µM) and the MIC ([3]; A. fumigatus) was 3 µg/mL (≈ 11.7 µM). The MIC ([4]; P. ultimum) was under 50 µg/mL, the MIC ([5]; H. annosum) was 50 µg/mL (≈ 194 µM) and the MIC [6] was 0.06 µg/mL (≈ 0.233 µM). It also gave an MIC ([7]; F. oxysporum) of 20 µg/mL (≈ 77.8 µM) and an MIC ([8]; M. canis) of 1 µg/mL (≈ 3.89 µM).
In the case of `CC(=O)O[C@H]1CC(=O)OC2CC(CC/C(Cl)=C/C/C=C\1C)O[C@H]2[C@H]1C=C(C)CC(=O)O1` (some centres unmarked) [Haterumalide X], the “inhibition of apothecial formation of sclerotia” value (“inhibition … of sclerotia” below) [1] is reported as “ability to inhibit”, the “inhibition of ascospore germination” value [2] is reported as “ability to inhibit” and the “inhibition of mycelial growth” value [9] is reported as “ability to inhibit”.
In the case of `CC(=O)O[C@H]1CC(=O)OC2CC(CC/C(Cl)=C/C/C=C\1C)O[C@H]2[C@H](O)/C=C(\C)CC(=O)O` (some centres unmarked) [Haterumalide A], the “inhibition … of sclerotia” value [1] is given as “ability to inhibit”, the “activity against three classes of fungi other than Oomycetes” value [10] is given as “little or no activity” and the “inhibition of ascospore germination” value [2] is given as “ability to inhibit”. For the same compound, the MIC [2] was 0.8 µg/mL (≈ 1.7 µM), the MIC [3] was 5 µg/mL (≈ 10.6 µM) and the MIC [4] was 0.4 µg/mL (≈ 0.849 µM). It also gave an MIC [5] of 35 µg/mL (≈ 74.3 µM), an MIC [6] of 2 µg/mL (≈ 4.25 µM) and an MIC [7] of 0.8 µg/mL (≈ 1.7 µM). The MIC [8] was 15 µg/mL (≈ 31.9 µM), the “mycelial growth of retrieved sclerotia on PDA plates” value ([11]; sclerotia treated with 10 μg ml^−1) was “no mycelial growth” and the “apothecial formation of retrieved sclerotia on moistened filter paper” value ([11]; sclerotia treated with 0.5 and 1 μg ml^−1) was “produced apothecia”. For the same compound, the “mycelial growth of retrieved sclerotia on PDA plates” value ([11]; sclerotia treated with 3 and 5 μg ml^−1) was “produced mycelium”, the “carpogenic germination of retrieved sclerotia” value ([11]; sclerotia treated with 3 to 10 μg ml^−1) was “total inhibition” and the “inhibition of mycelial growth of S. sclerotiorum” value ([9]; 0.05 to 0.1 μg ml^−1 per disc, 4 days) was “did not inhibit”. The “inhibition of mycelial growth” value [9] was “ability to inhibit”.
For `C=C(COC(=O)C/C(C)=C/[C@@H](O)[C@@H]1OC2CC/C(Cl)=C/C/C=C(/C)[C@@H](OC(C)=O)CC(=O)OC1C2)C(C)=O` (some centres unmarked) [Haterumalide B], the “Plants Surviving” value [12] was 0.0, the “Shot Fresh Weight” value [12] was 0.1 g and the “inhibition … of sclerotia” value [1] was “ability to inhibit”. For the same compound, the MIC [1, 15] was 0.5 µg/mL (≈ 0.904 µM), the “inhibition of ascospore germination” value [2] was “ability to inhibit” and the MIC [2] was 3 µg/mL (≈ 5.42 µM). It also gave an MIC [3] of 13 µg/mL (≈ 23.5 µM), an MIC [4] of 1 µg/mL (≈ 1.81 µM) and an MIC [5] of 20 µg/mL (≈ 36.2 µM). The MIC [6] was 1 µg/mL (≈ 1.81 µM), the MIC [7] was 0.8 µg/mL (≈ 1.45 µM) and the “growth of green algae” value [13] was “inhibits the growth”. For the same compound, the MIC [8] was 40 µg/mL (≈ 72.3 µM), the “inhibition of mycelial growth” value [9] was “ability to inhibit” and the “Number of Lemna minor fronts (leaves) per one microtiter plate well, End of test” value ([14]; 1 μg ml-1) was 10. For the same compound, the “Number of Lemna minor fronts (leaves) per one microtiter plate well, End of test” value ([14]; 5 μg ml-1) was 10, the “Number of Lemna minor fronts (leaves) per one microtiter plate well, End of test” value ([14]; 10 μg ml-1) was 10 and the “Number of Lemna minor fronts (leaves) per one microtiter plate well, End of test” value ([14]; 30 μg ml-1) was 10. The “Number of Lemna minor fronts (leaves) per one microtiter plate well, End of test” value ([14]; 60 μg ml-1) was 10, the “Visible effects on Lemna fronts” value ([14]; at all tested concentrations (1 to 60 μg ml-1)) was “fronts impaired and totally; also recorded: chlorotic” and the “differentiation and growth of Lemna minor” value ([14]; at all tested concentrations (1 to 60 μg ml^−1)) was “totally inhibited”.
For `C/C1=C/C/C=C(\Cl)CCC2CC(OC(=O)C[C@@H]1O)[C@H]([C@H](O)/C=C(\C)CC(=O)O)O2` (some centres unmarked) [Haterumalide E], the “inhibition … of sclerotia” value [1] was “ability to inhibit”, the MIC [1, 15] was 0.5 µg/mL (≈ 1.17 µM) and the “inhibition of ascospore germination” value [2] was “ability to inhibit”. The MIC [2] was 3 µg/mL (≈ 6.99 µM), the MIC [3] was 15 µg/mL (≈ 35 µM) and the MIC [4] was 8 µg/mL (≈ 18.7 µM). The MIC [5] was under 50 µg/mL, the MIC [6] was 5 µg/mL (≈ 11.7 µM) and the MIC [7] was 25 µg/mL (≈ 58.3 µM). For the same compound, the MIC [8] was under 75 µg/mL and the “inhibition of mycelial growth” value [9] was “ability to inhibit”.
